Reference: patent publication EP4786487A1, “PEPTIDE” (Peptidream Inc, priority 2023, dated 2025)
Starred links: 1 amine or outer side, 2 acyl side, 3 side chain; linkers in the order of their positions; H or OH if unused. Positions of bridges follow the written chain, without caps; N, C: chain ends. Non-standard residues stand in square brackets, D forms with d. Residues, ends and D or L forms follow the SMILES beside them. Phe(3-OCH2COOH) = N[C@@H](Cc1cccc(OCC(=O)O)c1)C(=O)O; Phe(4-COOH) = N[C@@H](Cc1ccc(C(=O)O)cc1)C(=O)O; Trp(7-aza) = N[C@@H](Cc1c[nH]c2ncccc12)C(=O)O; Gly(N(CH2)3COOH) = O=C(O)CCCNCC(=O)O; X1 = CCCCCCC[C@H](N[*:1])C(=O)[*:2]; NMeF = CN[C@@H](Cc1ccccc1)C(=O)O; NMeA = CN[C@@H](C)C(=O)O; Sar = CNCC(=O)O

How the values were obtained:
Type in all cases: cell-based
[1] = molecular target: T1, GDF-11 (Homo sapiens, UniProt O95390); assay: Reporter gene assay for myostatin signaling in HepG2 cell line, Evaluation Procedure (1), GDF-11 inhibition; details: Method A: GDF-11 10 ng/mL; read-out: IC50 (Luciferase) GDF-11 HepG2
T1 construct: purchased R&D systems 1958-GD-G8/CF
T1 sequence (O95390 299-407): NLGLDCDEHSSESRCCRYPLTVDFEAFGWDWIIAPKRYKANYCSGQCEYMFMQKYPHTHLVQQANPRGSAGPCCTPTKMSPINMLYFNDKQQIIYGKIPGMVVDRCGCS
Procedure, shortened: (§1)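 HepG2 cells transfected with pGL3(CAGA)12-luciferase reporter, serum-starved in 0.1% BSA medium, then stimulated with myostatin or GDF-11 plus 4-fold peptide dilutions (0.006–100 nmol/L for myostatin, 0.12–2000 nmol/L for GDF-11) for 20–24 h at 37 °C. Luminescence read with One-Glo; IC50 calculated.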

[2] = molecular target: T2, Myostatin (Homo sapiens, UniProt O14793); assay: Reporter gene assay for myostatin signaling in HepG2 cell line, Evaluation Procedure (1), myostatin inhibition; details: Method A: Myostatin 10 ng/mL; read-out: IC50 (Luciferase) Myostatin HepG2
T2 construct: active myostatin (also called mature myostatin) is a homodimer consisting of two C-terminal growth factor domains; purchased R&D systems 788-G8/CF
T2 sequence (O14793 267-375): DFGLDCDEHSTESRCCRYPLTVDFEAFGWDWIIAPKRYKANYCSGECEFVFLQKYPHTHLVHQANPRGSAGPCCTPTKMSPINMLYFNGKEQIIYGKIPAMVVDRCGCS
Procedure, shortened: as §1

[3] = tested on: Myostatin; assay: as above; details: Method A; GDF-11 IC50 versus Myostatin IC50
Procedure, shortened: as §1

SMILES | IC50 [1] | IC50 [2] | Selectivity [3]
CC[C@H](C)[C@@H]1NC(=O)[C@H](Cc2ccccc2)N(C)C(=O)[C@H](Cc2ccc(O)cc2)NC(=O)[C@H](Cc2c[nH]c3ccccc23)NC(=O)[C@H](CO)NC(=O)CN(CCCC(=O)O)C(=O)CSC[C@H](C(=O)O)NC(=O)[C@H](Cc2ccccc2)N(C)C(=O)[C@H](C)N(C)C(=O)[C@H](CC(C)C)NC(=O)[C@H](Cc2ccccc2)N(C)C(=O)[C@H](CCCNC(=N)N)NC(=O)[C@H](Cc2ccc(C(=O)O)cc2)NC(=O)[C@H](Cc2cccc(OCC(=O)O)c2)NC(=O)[C@H](C)N(C)C1=O [Myostatin_99_v158] ({CH2CO}-[Gly(N(CH2)3COOH)]SWY[NMeF]I[NMeA][Phe(3-OCH2COOH)][Phe(4-COOH)]R[NMeF]L[NMeA][NMeF][dC]-OH; thioether N-15) | 6460 nM | 62 nM | 104
CCCCCCC[C@@H]1NC(=O)[C@H](Cc2ccccc2)N(C)C(=O)[C@H](CCCNC(=N)N)NC(=O)[C@H](Cc2ccc(C(=O)O)cc2)NC(=O)[C@H](Cc2cccc(OCC(=O)O)c2)NC(=O)CN(C)C(=O)[C@H]([C@@H](C)CC)NC(=O)[C@H](Cc2ccccc2)N(C)C(=O)[C@H](Cc2ccc(O)cc2)NC(=O)[C@H](Cc2c[nH]c3ccccc23)NC(=O)[C@H](CO)NC(=O)[C@H](C)NC(=O)CSC[C@H](C(=O)O)NC(=O)[C@H](Cc2ccccc2)N(C)C(=O)[C@H](C)N(C)C1=O [Myostatin_99_v159] ({CH2CO}-ASWY[NMeF]I[Sar][Phe(3-OCH2COOH)][Phe(4-COOH)]R[NMeF][X1][NMeA][NMeF][dC]-OH; thioether N-15) | 404 nM | 3.9 nM | 104
CCCCCCC[C@@H]1NC(=O)[C@H](Cc2ccccc2)N(C)C(=O)[C@H](CCCNC(=N)N)NC(=O)[C@H](Cc2ccc(C(=O)O)cc2)NC(=O)[C@H](Cc2cccc(OCC(=O)O)c2)NC(=O)CN(C)C(=O)[C@H]([C@@H](C)CC)NC(=O)[C@H](Cc2ccccc2)N(C)C(=O)[C@H](Cc2ccc(O)cc2)NC(=O)[C@H](Cc2c[nH]c3ccccc23)NC(=O)[C@H](CO)NC(=O)CN(CCCC(=O)O)C(=O)CSC[C@H](C(=O)O)NC(=O)[C@H](Cc2ccccc2)N(C)C(=O)[C@H](C)N(C)C1=O [Myostatin_99_v161] ({CH2CO}-[Gly(N(CH2)3COOH)]SWY[NMeF]I[Sar][Phe(3-OCH2COOH)][Phe(4-COOH)]R[NMeF][X1][NMeA][NMeF][dC]-OH; thioether N-15) | 1240 nM | 8.2 nM | 151
CCCCCCC[C@@H]1NC(=O)[C@H](Cc2ccccc2)N(C)C(=O)[C@H](CCCNC(=N)N)NC(=O)[C@H](Cc2ccc(C(=O)O)cc2)NC(=O)[C@H](Cc2cccc(OCC(=O)O)c2)NC(=O)[C@H](C)N(C)C(=O)[C@H]([C@@H](C)CC)NC(=O)[C@H](Cc2ccccc2)N(C)C(=O)[C@H](Cc2ccc(O)cc2)NC(=O)[C@H](Cc2c[nH]c3ccccc23)NC(=O)[C@H](CO)NC(=O)CN(CCCC(=O)O)C(=O)CSC[C@H](C(=O)O)NC(=O)[C@H](Cc2ccccc2)N(C)C(=O)[C@H](C)N(C)C1=O [Myostatin_99_v163] ({CH2CO}-[Gly(N(CH2)3COOH)]SWY[NMeF]I[NMeA][Phe(3-OCH2COOH)][Phe(4-COOH)]R[NMeF][X1][NMeA][NMeF][dC]-OH; thioether N-15) | 1000 nM | 3.6 nM | 279
CCCCCCC[C@@H]1NC(=O)[C@H](Cc2ccccc2)N(C)C(=O)[C@H](CCCNC(=N)N)NC(=O)[C@H](Cc2ccc(C(=O)O)cc2)NC(=O)[C@H](Cc2cccc(OCC(=O)O)c2)NC(=O)[C@H](C)N(C)C(=O)[C@H]([C@@H](C)CC)NC(=O)[C@H](Cc2ccccc2)N(C)C(=O)[C@H](Cc2ccc(O)cc2)NC(=O)[C@H](Cc2c[nH]c3ncccc23)NC(=O)[C@H](CO)NC(=O)CN(CCCC(=O)O)C(=O)CSC[C@H](C(=O)O)NC(=O)[C@H](Cc2ccccc2)N(C)C(=O)[C@H](C)N(C)C1=O [Myostatin_99_v164] ({CH2CO}-[Gly(N(CH2)3COOH)]S[Trp(7-aza)]Y[NMeF]I[NMeA][Phe(3-OCH2COOH)][Phe(4-COOH)]R[NMeF][X1][NMeA][NMeF][dC]-OH; thioether N-15) | 1340 nM | 4.2 nM | 320
CCCCCCC[C@@H]1NC(=O)[C@H](Cc2ccccc2)N(C)C(=O)[C@H](CCCNC(=N)N)NC(=O)[C@H](Cc2ccc(C(=O)O)cc2)NC(=O)[C@H](Cc2cccc(OCC(=O)O)c2)NC(=O)CN(C)C(=O)[C@H]([C@@H](C)CC)NC(=O)[C@H](Cc2ccccc2)N(C)C(=O)[C@H](Cc2ccc(O)cc2)NC(=O)[C@H](Cc2c[nH]c3ccccc23)NC(=O)[C@H](C)NC(=O)CN(CCCC(=O)O)C(=O)CSC[C@H](C(=O)O)NC(=O)[C@H](Cc2ccccc2)N(C)C(=O)[C@H](C)N(C)C1=O [Myostatin_99_v165] ({CH2CO}-[Gly(N(CH2)3COOH)]AWY[NMeF]I[Sar][Phe(3-OCH2COOH)][Phe(4-COOH)]R[NMeF][X1][NMeA][NMeF][dC]-OH; thioether N-15) | 1240 nM | 14 nM | 89
CCCCCCC[C@@H]1NC(=O)[C@H](Cc2ccccc2)N(C)C(=O)[C@H](CCCNC(=N)N)NC(=O)[C@H](Cc2ccc(C(=O)O)cc2)NC(=O)[C@H](Cc2cccc(OCC(=O)O)c2)NC(=O)CN(C)C(=O)[C@H]([C@@H](C)CC)NC(=O)[C@H](Cc2ccccc2)N(C)C(=O)[C@H](Cc2ccc(O)cc2)NC(=O)[C@H](Cc2c[nH]c3ncccc23)NC(=O)[C@H](C)NC(=O)CN(CCCC(=O)O)C(=O)CSC[C@H](C(=O)O)NC(=O)[C@H](Cc2ccccc2)N(C)C(=O)[C@H](C)N(C)C1=O [Myostatin_99_v166] ({CH2CO}-[Gly(N(CH2)3COOH)]A[Trp(7-aza)]Y[NMeF]I[Sar][Phe(3-OCH2COOH)][Phe(4-COOH)]R[NMeF][X1][NMeA][NMeF][dC]-OH; thioether N-15) | 951 nM | 3.5 nM | 272

The next compounds have a lower IC50 [1] than those just listed; values first:

IC50 [1] | IC50 [2] | SMILES | Selectivity [3]
350 nM | 3.2 nM | CCCCCCC[C@@H]1NC(=O)[C@H](Cc2ccccc2)N(C)C(=O)[C@H](CCCNC(=N)N)NC(=O)[C@H](Cc2ccc(C(=O)O)cc2)NC(=O)[C@H](Cc2cccc(OCC(=O)O)c2)NC(=O)CN(C)C(=O)[C@H]([C@@H](C)CC)NC(=O)[C@H](Cc2ccccc2)N(C)C(=O)[C@H](Cc2ccc(O)cc2)NC(=O)[C@H](Cc2c[nH]c3ncccc23)NC(=O)[C@H](CO)NC(=O)[C@H](C)NC(=O)CSC[C@H](C(=O)O)NC(=O)[C@H](Cc2ccccc2)N(C)C(=O)[C@H](C)N(C)C1=O [Myostatin_99_v160] ({CH2CO}-AS[Trp(7-aza)]Y[NMeF]I[Sar][Phe(3-OCH2COOH)][Phe(4-COOH)]R[NMeF][X1][NMeA][NMeF][dC]-OH; thioether N-15) | 109
214 nM | 4.5 nM | CCCCCCC[C@@H]1NC(=O)[C@H](Cc2ccccc2)N(C)C(=O)[C@H](CCCNC(=N)N)NC(=O)[C@H](Cc2ccc(C(=O)O)cc2)NC(=O)[C@H](Cc2ccc(O)cc2)NC(=O)CN(C)C(=O)[C@H]([C@@H](C)CC)NC(=O)[C@H](Cc2ccccc2)N(C)C(=O)[C@H](Cc2ccc(O)cc2)NC(=O)[C@H](Cc2c[nH]c3ccccc23)NC(=O)[C@H](C)NC(=O)CN(CCCC(=O)O)C(=O)CSC[C@H](C(=O)O)NC(=O)[C@H](Cc2ccccc2)N(C)C(=O)[C@H](C)N(C)C1=O [Myostatin_99_v167] ({CH2CO}-[Gly(N(CH2)3COOH)]AWY[NMeF]I[Sar]Y[Phe(4-COOH)]R[NMeF][X1][NMeA][NMeF][dC]-OH; thioether N-15) | 48
119 nM | 2.1 nM | CCCCCCC[C@@H]1NC(=O)[C@H](Cc2ccccc2)N(C)C(=O)[C@H](CCCNC(=N)N)NC(=O)[C@H](Cc2ccc(C(=O)O)cc2)NC(=O)[C@H](Cc2ccc(O)cc2)NC(=O)CN(C)C(=O)[C@H]([C@@H](C)CC)NC(=O)[C@H](Cc2ccccc2)N(C)C(=O)[C@H](Cc2ccc(O)cc2)NC(=O)[C@H](Cc2c[nH]c3ncccc23)NC(=O)[C@H](C)NC(=O)CN(CCCC(=O)O)C(=O)CSC[C@H](C(=O)O)NC(=O)[C@H](Cc2ccccc2)N(C)C(=O)[C@H](C)N(C)C1=O [Myostatin_99_v168] ({CH2CO}-[Gly(N(CH2)3COOH)]A[Trp(7-aza)]Y[NMeF]I[Sar]Y[Phe(4-COOH)]R[NMeF][X1][NMeA][NMeF][dC]-OH; thioether N-15) | 57
90 nM | 6.1 nM | CCCCCCC[C@@H]1NC(=O)[C@H](Cc2ccccc2)N(C)C(=O)[C@H](CCCNC(=N)N)NC(=O)[C@H](Cc2ccc(C(=O)O)cc2)NC(=O)[C@H](Cc2cccc(OCC(=O)O)c2)NC(=O)CN(C)C(=O)[C@H]([C@@H](C)CC)NC(=O)[C@H](Cc2ccccc2)N(C)C(=O)[C@H](Cc2ccc(O)cc2)NC(=O)[C@H](Cc2c[nH]c3ncccc23)NC(=O)[C@H](CO)NC(=O)CN(CCCC(=O)O)C(=O)CSC[C@H](C(=O)O)NC(=O)[C@H](Cc2ccccc2)N(C)C(=O)[C@H](C)N(C)C1=O [Myostatin_99_v162] ({CH2CO}-[Gly(N(CH2)3COOH)]S[Trp(7-aza)]Y[NMeF]I[Sar][Phe(3-OCH2COOH)][Phe(4-COOH)]R[NMeF][X1][NMeA][NMeF][dC]-OH; thioether N-15) | 15
